Experimental data: ChEMBL document CHEMBL1201862, “PubChem BioAssay data set” (2004)
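Where inhibition never reached the appropriate level, the endpoint shown equals the highest concentration tested. Otherwise, values were interpolated linearly from a five-concentration, 48-hour dose response in 96-well plates. GI50 is the concentration that inhibits growth by half.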 Active and inactive are the calls of the source. Cut-off read from the data, not from the text of the source: active = GI50 up to about 1.1 µM and inactive = higher.

What was measured:
Experiment in all cases: DTP human tumour cell line panel, 48 h
RPMI-8226 = system: RPMI-8226
A498 = system: A498
HL-60 = system: HL-60
UACC-257 = system: UACC-257
KM12 = system: KM12
K562 = system: K562
SK-MEL-5 = system: SK-MEL-5
Hs-578T = system: Hs-578T
EKVX = system: EKVX
OVCAR-4 = system: OVCAR-4
M14 = system: M14
LOX IMVI = system: LOX IMVI
CCRF-CEM = system: CCRF-CEM
SK-OV-3 = system: SK-OV-3
NCI-H460 = system: NCI-H460
MDA-MB-435 = system: MDA-MB-435
HCT-116 = system: HCT-116
HCT-15 = system: HCT-15
786-0 = system: 786-0
IGROV-1 = system: IGROV-1

Compound	GI50 (RPMI-8226)	GI50 (A498)	GI50 (HL-60)	GI50 (UACC-257)	GI50 (KM12)	GI50 (K562)	GI50 (SK-MEL-5)	GI50 (Hs-578T)	GI50 (EKVX)	GI50 (OVCAR-4)	GI50 (M14)	GI50 (LOX IMVI)	GI50 (CCRF-CEM)	GI50 (SK-OV-3)	GI50 (NCI-H460)	GI50 (MDA-MB-435)	GI50 (HCT-116)	GI50 (HCT-15) [µM]	GI50 (786-0)	GI50 (IGROV-1)
N#CCC12CC=CCC1=C(O)C(=O)c1ccc(O)cc12 (stereo not given)	> 100 µM (inactive)	> 100 µM (inactive)	> 100 µM (inactive)	> 100 µM (inactive)	> 100 µM (inactive)	> 100 µM (inactive)	> 100 µM (inactive)	58.1 µM (inactive)	> 100 µM (inactive)	52 µM (inactive)	55.7 µM (inactive)	> 100 µM (inactive)	> 100 µM (inactive)	> 100 µM (inactive)	> 100 µM (inactive)	> 100 µM (inactive)	> 100 µM (inactive)	> 100	> 100 µM (inactive)	> 100 µM (inactive)
CC(C)NC(=O)CN1CCN(C2=CC(=O)c3c(O)ccc(O)c3C2=O)CC1	24.9 µM (inactive)	24.2 µM (inactive)	2.59 µM (inactive)	7.18 µM (inactive)	16.6 µM (inactive)	20.6 µM (inactive)	2.58 µM (inactive)	25.9 µM (inactive)	19.3 µM (inactive)	7.45 µM (inactive)	9.33 µM (inactive)	6.1 µM (inactive)	8.65 µM (inactive)	26.1 µM (inactive)	13 µM (inactive)	1.93 µM (inactive)	2.96 µM (inactive)	8.75	16.4 µM (inactive)	14.8 µM (inactive)
N=c1oc2cc(O)ccc2cc1C(=O)Nc1cccc2ccccc12	4.45 µM (inactive)	5.25 µM (inactive)	2.11 µM (inactive)	9.08 µM (inactive)	3.75 µM (inactive)	3.33 µM (inactive)	4.23 µM (inactive)	2.94 µM (inactive)	4.32 µM (inactive)	7.01 µM (inactive)	7 µM (inactive)	4.86 µM (inactive)	2.35 µM (inactive)	6.65 µM (inactive)	4.02 µM (inactive)	1.97 µM (inactive)	3.39 µM (inactive)	2.67	3.45 µM (inactive)	3.27 µM (inactive)
COc1ccc2nc3cc(Cl)ccc3c(Nc3ccc(O)c(CN4CCN(C)CC4)c3)c2c1	1.9 µM (inactive)	4.51 µM (inactive)	1.95 µM (inactive)	1.86 µM (inactive)	1.91 µM (inactive)	1.59 µM (inactive)	1.73 µM (inactive)	1.89 µM (inactive)	1.74 µM (inactive)	1.65 µM (inactive)	1.99 µM (inactive)	1.71 µM (inactive)	0.276 µM (active)	5.79 µM (inactive)	1.72 µM (inactive)	1.62 µM (inactive)	1.75 µM (inactive)	2.31	1.5 µM (inactive)	1.71 µM (inactive)
CC(C)Cn1cnnc1NS(=O)(=O)c1cc(C(=O)NN)c(Cl)cc1S	> 10 µM (inactive)	> 10 µM (inactive)	> 10 µM (inactive)	> 10 µM (inactive)	> 10 µM (inactive)	> 10 µM (inactive)	> 10 µM (inactive)	> 10 µM (inactive)	> 10 µM (inactive)	> 10 µM (inactive)	> 10 µM (inactive)	> 10 µM (inactive)	> 10 µM (inactive)	> 10 µM (inactive)	> 10 µM (inactive)	> 10 µM (inactive)	> 10 µM (inactive)	> 10	> 10 µM (inactive)	> 10 µM (inactive)
O=C(O)c1nc2ccc(Cl)cc2[nH]c1=O	> 100 µM (inactive)	> 100 µM (inactive)	> 100 µM (inactive)	> 100 µM (inactive)	> 100 µM (inactive)	> 100 µM (inactive)	> 100 µM (inactive)	> 100 µM (inactive)	> 100 µM (inactive)	> 100 µM (inactive)	> 100 µM (inactive)	> 100 µM (inactive)	> 100 µM (inactive)	> 100 µM (inactive)	> 100 µM (inactive)	> 100 µM (inactive)	> 100 µM (inactive)	> 100	> 100 µM (inactive)	> 100 µM (inactive)
C[N+]12CCCCC1C(CN1C(=O)c3ccccc3C1=O)CCC2 (stereo not given)	> 100 µM (inactive)	> 100 µM (inactive)	> 100 µM (inactive)	> 100 µM (inactive)	> 100 µM (inactive)	> 100 µM (inactive)	> 100 µM (inactive)	> 100 µM (inactive)	> 100 µM (inactive)	> 100 µM (inactive)	> 100 µM (inactive)	> 100 µM (inactive)	> 100 µM (inactive)	> 100 µM (inactive)	> 100 µM (inactive)	> 100 µM (inactive)	> 100 µM (inactive)	> 100	> 100 µM (inactive)	> 100 µM (inactive)
COC(=O)c1ccccc1CC1Cc2cc3c(cc2C1)CCC3	17.3 µM (inactive)	49.4 µM (inactive)	9.75 µM (inactive)	31.2 µM (inactive)	26.5 µM (inactive)	23 µM (inactive)	25.8 µM (inactive)	45.8 µM (inactive)	45.5 µM (inactive)	39.5 µM (inactive)	38.8 µM (inactive)	24 µM (inactive)	20.4 µM (inactive)	49.4 µM (inactive)	48.2 µM (inactive)	29.4 µM (inactive)	22.1 µM (inactive)	48.8	36.5 µM (inactive)	37.3 µM (inactive)
COc1cc(S(=O)(=O)Nc2ccc(-c3csc(/N=C\C=C\c4ccccc4)n3)cc2)ccc1Cl	27.3 µM (inactive)	20.6 µM (inactive)	43.3 µM (inactive)	7.76 µM (inactive)	84.5 µM (inactive)	31.2 µM (inactive)	38.3 µM (inactive)	87.3 µM (inactive)	36.9 µM (inactive)	28.5 µM (inactive)	29.9 µM (inactive)	29.6 µM (inactive)	17.5 µM (inactive)	> 100 µM (inactive)	0.0484 µM (active)	> 100 µM (inactive)	46.8 µM (inactive)	50	> 100 µM (inactive)	39.4 µM (inactive)
CCOC(=O)c1c(SC)nc(-c2ccc(Cl)cc2)sc1=N.[O-][Cl+3]([O-])([O-])O	37.2 µM (inactive)	31.5 µM (inactive)	35 µM (inactive)	34.6 µM (inactive)	30.8 µM (inactive)	34.4 µM (inactive)	15.2 µM (inactive)	27.9 µM (inactive)	22 µM (inactive)	30.8 µM (inactive)	45.4 µM (inactive)	36.4 µM (inactive)	39.9 µM (inactive)	37.2 µM (inactive)	26 µM (inactive)	34 µM (inactive)	23.1 µM (inactive)	22.9	27.3 µM (inactive)	20.8 µM (inactive)
NC(C(=O)O)c1cc(O)no1 (stereo not given)	> 100 µM (inactive)	> 100 µM (inactive)	> 60 µM (inactive)	> 100 µM (inactive)	> 100 µM (inactive)	> 100 µM (inactive)	> 100 µM (inactive)	> 100 µM (inactive)	> 100 µM (inactive)	> 100 µM (inactive)	> 100 µM (inactive)	> 100 µM (inactive)	> 100 µM (inactive)	> 100 µM (inactive)	> 100 µM (inactive)	> 100 µM (inactive)	> 100 µM (inactive)	> 100	> 100 µM (inactive)	> 100 µM (inactive)
O=C1CC(c2ccccc2)Oc2ccccc21 (stereo not given) [FLAVANONE]	17.1 µM (inactive)	30.3 µM (inactive)	21.5 µM (inactive)	77.3 µM (inactive)	35.7 µM (inactive)	12.6 µM (inactive)	25.1 µM (inactive)	67.3 µM (inactive)	38.9 µM (inactive)	66.1 µM (inactive)	51.9 µM (inactive)	26.5 µM (inactive)	24.2 µM (inactive)	84.1 µM (inactive)	32.1 µM (inactive)	31.9 µM (inactive)	30.3 µM (inactive)	26.1	29.3 µM (inactive)	23.4 µM (inactive)
